These results are taken from patent publication US20210403924A1, “Method for selecting cells based on CRISPR/Cas-mediated integration of a detectable tag to a target protein” (Hoffmann-La Roche Inc., priority 2018, published 2021).

What all share (assay type): cell-based
In series [1] the test system is human TUBA1B locus. The experiment in a line: Knock-in Strategy V2: eGFP knock-in at TUBA1B, puromycin and hygromycin B double selection, FACS screen of clones for FITC signal. The note with it: for Efficiency (potentially positive clones / clones examined) / Number of potential clones (total number of examined clones in parentheses): HEK293A. The method, then:
In the Knock-in Strategy V2, a Cas9-encoding plasmid comprising a puromycin-resistance cassette was co-transfected with a circular donor plasmid with a hygromycin B-resistance cassette as well as specific, synthetic crRNA and tracrRNA. The selection was carried out as double selection with hygromycin B for the donor plasmid and puromycin for the Cas9-encoding plasmid.
In the Knock-in Strategy V2, the cells were transfected with the identical crRNAs and tracrRNAs, as well as the Cas9-PuroR plasmid as in the Knock-in Strategy V1. Each of the three crRNAs (SEQ ID NO: 07-09) was combined with the linearized or circular donor plasmid with the hygromycin B-resistance cassette. Selection was performed via puromycin for the Cas9 plasmid and hygromycin B for the donor plasmid for a total of 10 days. Four 96-well plates with FITC-positive, viable single cells were subsequently deposited from each transfection. Differences in the FITC signal between the wild-type and the transfected cells were evident in the enlarged view of the histograms. The proportion of FITC-positive cells was between 0.4% and 3.8%. […] The most intense signal was found in the sample of crRNA3 and the circular donor plasmid (FIG. 13).
After a three-week incubation in the incubator, the growth rate of the deposited single cells was determined microscopically. It averaged 34.3%. All grown clones were analyzed by FACS for their FITC signal. An eGFP expression in the cells leads to the detection of an increased FITC signal compared to the wild-type, i.e. non-transfected cells. A total of 118 potentially positive clones were identified from a total of 496 analyzed clones. This corresponded to an overall efficiency of […]. The proportion of potentially positive clones among the samples containing the circular donor plasmid was 33.3%, more than twice as high as that for the linearized donor plasmid at 15.3% (Table 4).
(§1) Using FACS sorting, the transfected and partially already selected cells were sorted. These were harvested, washed with PBS and adjusted to a cell number of 1×10^6 cells/mL in FACS buffer. After the desired cell population had been gated and all settings made on the device for sorting, the selected cells could be […]. The single cell deposit was performed in 96-well format. The plates were stored with 200 μL of medium per well at 37° C. in order to temper the medium and to keep the cell's stress as low as possible. Each knock-in trial involved deposition in between 20 and 24 plates. The cells then needed about 3 weeks in the incubator at 37° C. and 5% CO2 for growth. All plates were analyzed microscopically to determine the growth rate and the clones were then examined for eGFP expression.
(§2) The methodology was used primarily for the screening of the generated clones. For this purpose, the medium was completely removed from the 96-well plates, the cells were detached with 25 μL Accutase and resuspended with 40 μL FACS buffer. 40 μL of cell suspension was transferred to a 96-well conical-bottomed plate and measured directly on the FACS Canto II from BD. The eGFP signals of the clones were always referenced with HEK293A wild-type cells. The evaluation was done with the FlowJo v10.0.7 software. Potentially positive clones with a distinct eGFP signal were expanded and further characterized.

The subject of series [2] is human TUBA1B locus. The experiment in a line: Knock-in Strategy V1: eGFP knock-in at TUBA1B, puromycin single selection, FACS screen of clones for FITC signal. Particulars: HEK293A. On the procedure: In the Knock-in Strategy V1, a Cas9-encoding plasmid comprising a puromycin-resistance cassette was co-transfected with a circular donor plasmid without a selection marker as well as specific synthetic crRNA and tracrRNA. The selection was carried out exclusively with puromycin on the Cas9-encoding plasmid.
In the first knock-in strategy, the cells were transfected with the Cas9-PuroR plasmid, the circular donor plasmid, as well as specific, synthetic crRNA and tracrRNA. The selection was made exclusively on the Cas9 plasmid with puromycin for 10 days. Thereafter, single cells of the cells transfected with crRNA1 (SEQ ID NO: 07) or crRNA2 (SEQ ID NO: 08), respectively, were deposited in ten 96-well plates. […] The increased FITC signal can be attributed to the expression of eGFP, which is only possible if the eGFP sequence from the donor plasmid has been introduced in-frame into a translated region in the genome, since the start codon is missing.
The growth rate of the deposited single cells was determined microscopically after 3 weeks, and totaled 63%. Subsequently, the cells by FACS were analyzed for their FITC signal (results in Table 1).
as §1, §2

Series [3] relates to human TUBA1B locus. The experiment in a line: Knock-in Strategy V3: eGFP knock-in at TUBA1B, CD4 pool sorting and hygromycin B selection, FACS screen of clones for FITC signal. Particulars: HEK293A. On the procedure: In the Knock-in Strategy V3, the Cas9 nuclease and the sgRNA were combined on a single plasmid. This additionally contained a CD4 marker for selection. The donor plasmid corresponded to that of the strategy V2. Thus, the double selection was carried out via hygromycin B for the donor plasmid, as well as for CD4 for the nuclease/gRNA plasmid.
In the Knock-in Strategy V3, the cells were transfected with the circular or linear donor plasmid and a pCas-Guide EF1α-CD4 plasmid. This plasmid, referred to as “all-in-one”, encodes the Cas9 nuclease, a gRNA and CD4. The selection was made in this strategy via hygromycin B for the donor plasmid, and with CD4 for the Cas9 nuclease and the gRNA. Three different pCas-Guide-EF1α-CD4 plasmids were used, each coding for one of the three gRNAs. […] About 48 hours after transfection, the cells were stained with an APC-conjugated anti-CD4 antibody. HEK293A wild-type cells natively express no CD4, so these cells defined the APC negative gate. Only cells that had taken up the pCas-Guide-EF1α-CD4 plasmid expressed CD4 on the cell surface, which was detectable by FACS via the elevated APC signal after staining with the antibody. […] The transfected cells are between 63% and 86% in the APC positive gate. Comparing the samples with linear and circular donor plasmid from each gRNA, it was possible to see that proportionally more APC and, thus, CD4 positive cells were detected in the samples with the circular donor plasmid. From each transfection approximately 5×10^5 CD4 positive cells were deposited as a cell pool using FACS sorting (FIG. 16).
The cells were cultured after pool sorting for 24 h in 6-well plates. Next, selection with hygromycin B was performed for the donor plasmid for 10 days. Subsequently, single cells from each transfection were deposited in four 96-well plates. Differences in the FITC signal between the wild-type and the transfected samples were evident in the enlarged view of the histograms. […] Gating on FITC-positive cells was therefore almost impossible. To the extent possible, viable single cells were deposited from the FITC-positive gate (FIG. 17).
Three weeks after single cell deposition, the first screening of the clones for the FITC signal followed and, thus, the presence of eGFP in the FACS. Previously, an average growth rate of 43% had been determined microscopically. A total of 952 clones were screened, of which 33 were identified as potentially positive clones. This corresponded to an efficiency of 3.4%. No clones could be identified in the three samples 1L, 3L and 3Z. Again, it was possible to see that the circular donor plasmid samples yielded more potentially positive clones than did samples with the linearized donor plasmid (Table 7).
In the knock-in V3, the pCas9-Guide-EF1α-CD4 plasmid contains a CD4 cassette as a selection marker. To select the CD4-positive cells, the cells were harvested 48 hours after transfection and washed twice with PBS. Next, the cells were resuspended in 250 μL FACS buffer and 5 μL α-CD4-Alexa 647 antibody added. This corresponded to a final antibody concentration of 1.5 μg/mL. After one hour of incubation on ice in the dark, the cells were washed three times with FACS buffer and then measured. For pool sorting, approximately 1.5×10^5 CD4-positive cells per sample were sorted into a 15 mL Falcon in which 5 mL of complete medium had already been placed. Subsequently, the cells were centrifuged for 5 min. at 300 g, resuspended in 3 mL fresh complete medium and seeded into a 6-well plate. After 24 hours the cells were again adherent and could be selected with hygromycin B on the donor plasmid. Once the selected cells had matured, the single-cell deposition in the 96-well format was again carried out.
The methodology was used primarily for the screening of the generated clones. For this purpose, the medium was completely removed from the 96-well plates, the cells were detached with 25 μL Accutase and resuspended with 40 μL FACS buffer. […]

Setting [4] is: Plates from gate P3, circular donor plasmid.
Setting [5] is: Plates from gate P4 (FITC-positive), circular donor plasmid.

Consider “crRNA1: TUBA1B-specific synthetic crRNA (Dharmacon), SEQ ID NO: 07, GAGTGCATCTCCATCCACGT (synthetic crRNA bought from a supplier, chemistry not given here)”, for which the “Efficiency (potentially positive clones / clones examined)” value with human TUBA1B locus [1] (Circular donor plasmid) was found to be 53.3%; with human TUBA1B locus [1] (Linear donor plasmid), 7.2%; in the series on human TUBA1B locus [2] (setting [4]) it was 0.44%; in the series on human TUBA1B locus [2] (setting [5]), 16.1%. Besides, the “Number of potential clones (total number of examined clones in parentheses)” value (from here on “Number of potential clones”) in the series on human TUBA1B locus [1] (Circular donor plasmid) is on record as 40 (75); with human TUBA1B locus [1] (Linear donor plasmid) it was 7 (97). In addition, the results for the “Number of potentially positive clones (total number of examined clones in parentheses)” value with human TUBA1B locus [2] (setting [4]) and in the series on human TUBA1B locus [2] (setting [5]) were 2 (452) and 11 (68), respectively.
Turning to “crRNA2: TUBA1B-specific synthetic crRNA (Dharmacon), SEQ ID NO: 08, GGCCAGGCTGGTGTCCAGAT (synthetic crRNA bought from a supplier, chemistry not given here)”, the “Efficiency (potentially positive clones / clones examined)” value was 1% in the series with human TUBA1B locus [1] (Circular donor plasmid), 0% in the series with human TUBA1B locus [1] (Linear donor plasmid), 0.25% in the series on human TUBA1B locus [2] (setting [4]) and 14.7% in the series with human TUBA1B locus [2] (setting [5]). Further, the “Number of potential clones” value in the series on human TUBA1B locus [1] (Circular donor plasmid) is recorded as 1 (98); in the series on human TUBA1B locus [1] (Linear donor plasmid), 0 (81). The “Number of potentially positive clones (total number of examined clones in parentheses)” value in the series on human TUBA1B locus [2] (setting [4]) is given as 1 (399); in the series with human TUBA1B locus [2] (setting [5]) it was 9 (64).
“crRNA3: TUBA1B-specific synthetic crRNA (Dharmacon), SEQ ID NO: 09, GAGCTCTACTGCCTGGAACA (synthetic crRNA bought from a supplier, chemistry not given here)”: in the series with human TUBA1B locus [1] (Circular donor plasmid), the “Efficiency (potentially positive clones / clones examined)” value amounted to 60.7% and the “Number of potential clones” value was 37 (61). Further, in the series on human TUBA1B locus [1] (Linear donor plasmid), the “Efficiency (potentially positive clones / clones examined)” value amounted to 39.3% and the “Number of potential clones” value is given as 33 (84). Moreover, in the series with human TUBA1B locus [1] (clones with circular donor plasmid, after long-term cultivation, FACS), the “cells of the clones in the FITC-positive range” value is “over 87%”.
For “gRNA1: TUBA1B-specific gRNA encoded on the pCas-Guide-EF1α-CD4 all-in-one plasmid, oligos SEQ ID NO: 01 and 02 (DNA 1 GATCGGAGTGCATCTCCATCCACGTG; DNA 2 AAAACACGTGGATGGAGATGCACTCC; the letters are possibly those of the target site)”, the “Efficiency (potential clones / clones examined)” value in the series on human TUBA1B locus [3] (Circular donor plasmid) worked out at 19.4%; with human TUBA1B locus [3] (Linear donor plasmid) it was 0%. Moreover, the “Number of potential clones” value with human TUBA1B locus [3] (Circular donor plasmid) is 12 (62); in the series with human TUBA1B locus [3] (Linear donor plasmid), 0 (195).
Regarding “gRNA2: TUBA1B-specific gRNA encoded on the pCas-Guide-EF1α-CD4 all-in-one plasmid, oligos SEQ ID NO: 03 and 04 (DNA 1 GATCGGGCCAGGCTGGTGTCCAGATG; DNA 2 AAAACATCTGGACACCAGCCTGGCCC; the letters are possibly those of the target site)”, in the series with human TUBA1B locus [3] (Circular donor plasmid), the “Efficiency (potential clones / clones examined)” value was determined as 6.5% and the “Number of potential clones” value is reported as 14 (214). Moreover, in the series on human TUBA1B locus [3] (Linear donor plasmid), the “Efficiency (potential clones / clones examined)” value was determined as 3.6% and the “Number of potential clones” value is on record as 7 (195).
The matching figures for “gRNA3: TUBA1B-specific gRNA encoded on the pCas-Guide-EF1α-CD4 all-in-one plasmid, oligos SEQ ID NO: 05 and 06 (DNA 1 GATCGGAGCTCTACTGCCTGGAACAG; DNA 2 AAAACTGTTCCAGGCAGTAGAGCTCC; the letters are possibly those of the target site)”: 0%, 0 (105), 0% and 0 (212).
